Where two headings read alike, the source gives them in different places.
What was measured:
[1] = tested on: yeast strains expressing the human protein α-synuclein; assay: Yeast rescue assay, α-synuclein toxicity (OD600 growth); type: cell-based; conditions: 40 h; for EC50: read-out: α-Syn EC50
Description: (§1) In a standard yeast assay, a single-use aliquot of cells was thawed on ice and diluted into CSM/glucose (5 mL). Cultures were grown for 8 hours at 30° C. This pre-growth enables the yeast to exit the thaw and begin to grow without expressing aSyn or ApoE4. After 8 hours, cell density (OD600) was determined and cultures diluted to an OD600 of 0.01 in CSM/raffinose for an overnight culture phase at 30° C. During this period, the active glucose repression of the GAL1 promoter was relieved; however, expression of the α-Syn/ApoE4 genes were not yet induced. After ˜16 hours of growth, cultures attain an OD600 of 0.4-0.8 and were ready to apply to assay plates containing compound.
(§2) Compound profiling assays were executed in clear-bottom 384 well plates. First, compound plates were thawed at room temperature for 45′, centrifuged at 1,000×g for 1 minute, and the foil removed. Clear 384 well assay plates were then filled with 15 μL of CSM/galactose. Both compound and media-containing plates were arranged on the Janus workstation and a compound pin tool (384×100 nL slotted pins) used to deliver 100 nL of compounds to each well according to the well map of the compound plate. Based on the previous serial dilution, the final concentration of compound ranged from […] to 12.5 nM. The pin tool was washed iteratively with both 50% DMSO and 100% ethanol between each assay plate. After delivering compound to each assay plate, the overnight CSM/raffinose aSyn or ApoE4 cultures were added at a 2× cell density (0.04 for aSyn and 0.08 for ApoE4) in CSM/galactose to achieve a final assay OD600 of 0.02 and 0.04 for aSyn and ApoE, respectively. The cultures (15 μL per well) were then dispensed to the compound-containing 384 well assay plates using an automated plate filler. Plates were incubated in a humidified 30° C. incubator for 40 or 24 hours for aSyn and ApoE4, respectively. The OD600 of each assay plate was then read with a microplate reader (e.g., Perkin Elmer Envision).
The efficacy and potency of compounds were calculated according to the following. Raw data (OD600 values) were first background corrected to account for OD600 contributed by the plate and media itself. The efficacy (percent above DMSO, herein referred to as “Emax”) was calculated according to the equation: (Experimental well−DMSO control well)/(DMSO control well)*100. […] Normalized dose-response data was fit with a logistic regression curve using Spotfire (TIBCO), or similar curve-fitting software package. EC50 values were then reported along with EMax to provide both efficacy and potency measures for each analog and enable further compound design.

[2] = tested on: yeast strains expressing the human protein ApoE4; assay: Yeast rescue assay, ApoE4 toxicity (OD600 growth); type: cell-based; conditions: 24 h
Description: as §1
as §2, with “The cultures (15 μL per well) were then dispensed to the compound-containing 384 well assay plates using an automated plate filler. Plates were incubated in a humidified 30° C. incubator for 40 or 24 hours for aSyn and ApoE4, respectively.” left out
The efficacy and potency of compounds were calculated according to the following. […] The efficacy (percent above DMSO, herein referred to as “Emax”) was calculated according to the equation: (Experimental well−DMSO control well)/(DMSO control well)*100. […]

Ole1 = biological target: T1, Ole1 (Saccharomyces cerevisiae, UniProt P21147); assay: Growth inhibition of yeast expressing Ole1 as sole desaturase; type: cell-based; conditions: yeast expressing Ole1 as sole desaturase
T1 construct: expressed in transfected cells; host or cells: S. cerevisiae ole1Δ strain (W303 pdr1Δ pdr3Δ background), plasmid pRS316 with TDH3 promoter and CYC1 terminator
T1 sequence (P21147 1-510): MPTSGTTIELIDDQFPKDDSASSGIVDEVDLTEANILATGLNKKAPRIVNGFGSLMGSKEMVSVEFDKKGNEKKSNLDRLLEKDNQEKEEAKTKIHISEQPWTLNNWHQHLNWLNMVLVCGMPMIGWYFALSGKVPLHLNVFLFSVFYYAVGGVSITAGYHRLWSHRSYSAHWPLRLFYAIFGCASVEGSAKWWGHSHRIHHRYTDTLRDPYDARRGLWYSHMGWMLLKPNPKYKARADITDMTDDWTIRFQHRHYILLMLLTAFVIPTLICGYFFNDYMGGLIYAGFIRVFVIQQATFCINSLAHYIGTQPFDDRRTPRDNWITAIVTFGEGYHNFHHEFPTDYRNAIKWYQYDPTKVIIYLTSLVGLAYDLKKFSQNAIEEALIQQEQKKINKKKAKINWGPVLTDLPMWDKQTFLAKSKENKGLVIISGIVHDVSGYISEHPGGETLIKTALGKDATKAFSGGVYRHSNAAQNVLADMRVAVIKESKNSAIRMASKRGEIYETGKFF
Description: (§3) Strain ole1Δ (yeast ole1 deletion mutant) was constructed by deleting OLE1 with NAT-MX6 in BY4741, amplifying the deletion cassette from the genomic DNA of the resulting strain with primers flanking the ORF by 1000 bp upstream and downstream, transforming the resulting deletion cassette into W303 pdr1Δ pdr3Δ, and plating transformants on YPD media containing G418 (200 μg/mL) and nourseothricin (100 μg/mL) with 0.01% TWEEN®-20 and 0.5 mM oleic and palmitoleic acids.
(§4) The coding sequence of yeast OLE1 was also cloned into this plasmid). These clones were then transformed into the ole1Δ strain and plated on CSM-Ura media (CSM lacking uracil) with 2% glucose (w/v) and independent colonies were isolated and amplified.
(§5) All compound profiling experiments were performed using the same basic protocol. Different genetic backgrounds (e.g., gene deletions) or conditions (e.g., addition of oleic and palmitoleic acid) were replaced as indicated below.
(§6) Yeast were cultured using standard techniques in complete synthetic media (CSM) and yeast nitrogen base supplemented with 2% (w/v) carbon source (glucose, raffinose, or galactose) to regulate the expression of the toxic disease protein. An initial starter culture was inoculated in 3 mL CSM-Glucose media and incubated overnight in a 30° C. shaker incubator (225 rpm). Saturated morning cultures were then diluted 1:20 in fresh CSM-Raffinose media and grown for 6 h to an OD600 (optical density) of ˜0.4-0.8 at 30° C. with shaking.
(§7) Compound administration was performed in two separate steps. First, 15 μL of CSM-Galactose (induces expression of toxic protein) was dispensed into clear 384 well assay plates using a MULTIDROP™ Combi reagent dispenser. […] The cultures described above were then diluted to a 2× concentration (0.03 and 0.08 for alpha-synuclein and ApoE, final OD600 of 0.015 and 0.04) in CSM-Galactose. For wild-type and Ole1/SCD1/SCD5 plasmid-containing strains, the 2× cell density was 0.02. […] For 96-well assays (FIGS. 1A and 1B), compound dilutions in DMSO were generated in 96 well plates and 1 μL was manually pipetted into 96 well clear bottom assay plates.
(§8) For experiments using a plasmid-borne copy of Ole1, SCD1, or SCD5 (FIGS. 3B, 6, and 7), media lacking uracil (SX-Ura, where X is glucose, raffinose, or galactose), was used for all steps of the compound profiling protocol to ensure its maintenance throughout the assay.
(§9) After yeast delivery, assay plates were incubated under humidified conditions at 30° C. for 24 to 40 h. ApoE4 rescue experiments were stopped at 24 h, aSyn experiments at 40 h, Ole1 at 24 h, and SCD1/SCD5 at 40 h. The growth of yeast was monitored by reading the OD600 of each well using a microplate reader (Perkin Elmer EnVision™).

SCD1 [3] = biological target: T2, SCD1 (Homo sapiens, UniProt O00767); assay: Growth inhibition of humanized yeast expressing SCD1 as sole desaturase; type: cell-based; conditions: humanized yeast expressing SCD1
T2 construct: host or cells: S. cerevisiae ole1Δ strain, plasmid pRS316 with TDH3 promoter and CYC1 terminator
T2 sequence (O00767 1-359): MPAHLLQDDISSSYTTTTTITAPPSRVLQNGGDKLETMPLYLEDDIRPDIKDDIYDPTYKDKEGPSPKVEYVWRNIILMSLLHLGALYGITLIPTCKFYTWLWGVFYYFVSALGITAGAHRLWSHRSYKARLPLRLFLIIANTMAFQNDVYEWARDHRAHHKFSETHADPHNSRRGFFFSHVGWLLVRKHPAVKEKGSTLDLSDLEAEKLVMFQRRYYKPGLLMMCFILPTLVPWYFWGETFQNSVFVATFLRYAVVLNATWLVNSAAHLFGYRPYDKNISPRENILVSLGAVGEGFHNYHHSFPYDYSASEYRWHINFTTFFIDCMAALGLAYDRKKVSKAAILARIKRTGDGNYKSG
How it was run: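 ole1Δ yeast (W303 pdr1Δ pdr3Δ background) carried plasmid-borne human SCD1, human SCD5 or yeast Ole1 as the sole desaturase and were grown in uracil-lacking galactose medium in 384-well plates. Starting 2× density was OD600 0.02, with incubation at 30 °C. Growth was read as OD600 at 24 h for Ole1 and at 40 h for SCD1 and SCD5.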

SCD5 [4] = biological target: T3, SCD5 (Homo sapiens, UniProt Q86SK9); assay: Growth inhibition of humanized yeast expressing SCD5 as sole desaturase; type: cell-based; conditions: humanized yeast expressing SCD5
T3 construct: host or cells: S. cerevisiae ole1Δ strain, plasmid pRS316 with TDH3 promoter and CYC1 terminator
T3 sequence (Q86SK9 1-330): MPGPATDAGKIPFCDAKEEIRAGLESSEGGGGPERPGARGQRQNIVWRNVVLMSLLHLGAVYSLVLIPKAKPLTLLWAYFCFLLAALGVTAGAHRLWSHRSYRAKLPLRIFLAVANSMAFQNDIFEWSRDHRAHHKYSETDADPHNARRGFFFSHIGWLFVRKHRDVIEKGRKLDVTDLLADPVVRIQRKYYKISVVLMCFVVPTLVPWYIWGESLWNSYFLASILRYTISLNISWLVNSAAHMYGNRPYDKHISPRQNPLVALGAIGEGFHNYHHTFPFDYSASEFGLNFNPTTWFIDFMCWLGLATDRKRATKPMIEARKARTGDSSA
Description: as §3, §4, §5, §6, §7, §8, §9

yeast OLE1 = biological target: T4, yeast OLE1 (Saccharomyces cerevisiae, UniProt P21147); assay: Growth of yeast surviving solely on yeast OLE1; type: cell-based; conditions: percent of the DMSO-treated condition
T4 construct: expressed in transfected cells; host or cells: S. cerevisiae ole1Δ strain (W303 pdr1Δ pdr3Δ background), plasmid pRS316 with TDH3 promoter and CYC1 terminator
T4 sequence (P21147 1-510): T1 sequence (P21147 1-510)
Description: (§10) FIG. 6 is a series of graphs showing that commercial Scd inhibitors target human SCD1/SCD5 in yeast. Yeast surviving solely on yeast OLE1, or human SCD1 or SCD5, were treated with four commercial Scd inhibitors at indicated concentrations. Data are expressed as a percent of the DMSO-treated condition.
(§11) FIG. 7 is a series of graphs showing that 1,2,4-oxadiazoles target human SCD1 and SCD5. Three “SCD” strains expressing yeast OLE1 or human SCD1 or SCD5 were treated with five representative 1,2,4-oxadiazoles and a cycloheximide toxicity control at concentrations indicated on the logic x-axis. The y-axis indicates the percent of the DMSO-treated condition. […] Approximately one half of all (250) 1,2,4-oxadiazoles tested inhibited SCD1 or SCD5 in a manner that was reversed by oleic/palmitoleic acid treatment.

SCD1 [5] = biological target: T2, SCD1; assay: Growth of yeast surviving solely on human SCD1; type: cell-based; conditions: percent of the DMSO-treated condition
Description: as §10, §11

SCD5 [6] = biological target: T3, SCD5; assay: Growth of yeast surviving solely on human SCD5; type: cell-based, yeast expressing human SCD5; conditions: percent of the DMSO-treated condition
Description: as §10, §11

Question: With `Cc1ccc(-c2noc(C3CCN(C(=O)C4CC(=O)N(c5ccc(C)c(C)c5)C4)CC3)n2)cc1` (centres unmarked) [Compound 61] as the compound, how does the EC50 [1] read?
Answer: 19.7 µM

Question: What about the “α-Syn Emax” value ([1]; percent above DMSO) of the same compound?
Answer: 229%

Question: What about the EC50 ([2]; Homo sapiens) of the same compound?
Answer: 19.4 µM

Question: What about the Emax ([2]; Homo sapiens, percent above DMSO) of the same compound?
Answer: 465%

Question: What about the IC50 (Ole1) of the same compound?
Answer: 40.9 µM

Question: What about the “OLE1 % Max Inhibition” value (Ole1) of the same compound?
Answer: 71.50%

Question: And the “SCD1 % Max Inhibition” value (SCD1 [3])?
Answer: 2.37%

Question: And the “SCD5 % Max Inhibition” value (SCD5 [4])?
Answer: 13.18%

Question: Which results are given for `C[C@@H]1C[C@@H]([C@H](O)CC2CC(=O)NC(=O)C2)C(=O)[C@@H](C)C1` [Cyclohexamide, cycloheximide]?
Answer: growth of Ole1-expressing yeast (yeast OLE1): inhibited growth of all three strains with the same potency; growth of SCD1-expressing yeast (SCD1 [5]): inhibited growth of all three strains with the same potency; growth of SCD5-expressing yeast (SCD5 [6]): inhibited growth of all three strains with the same potency

Question: Which “α-Syn Emax” value ([1]; percent above DMSO) does the source give for `CCOc1ccc(-c2noc(C3CCN(C(=O)N4CCCCC4)CC3)n2)cc1OC` [Compound 53] here?
Answer: 81%

Question: And the “ApoE4 Emax” value ([2]; percent above DMSO)?
Answer: 296%

Question: With `CCOc1ccc(-c2noc(C3CCN(C(=O)[C@@H]4CC[C@H](c5ccccc5)N4)CC3)n2)cc1OC` [compound 119] as the compound, how does the Emax ([1]; Homo sapiens, percent above DMSO, read-out: α-Syn Emax) read?
Answer: 61%

Question: And the EC50 ([1]; Homo sapiens)?
Answer: 20.9 µM

Question: And the IC50 (SCD1 [3])?
Answer: > 45 µM

Question: What about the IC50 (SCD5 [4]) of the same compound?
Answer: > 45 µM

— US20240400546A1, “COMPOUNDS AND USES THEREOF” (JANSSEN PHARMACEUTICA NV, priority 2016, published 2024)
